Assay results from patent US9296684B2, “Allyl 2-cyanoacrylate prepolymer, preparation method thereof, and bioadhesive composition comprising the prepolymer” (UNIVERSITY-INDUSTRY COOPERATION GROUP OF KYUNG HEE …, priority 2011, dated 2016).

Assay: Change of viscosity according to time for heating 2-cyanoacrylate prepolymer
Format: physicochemical
Conditions: heated at 150° C., FIG. 1
Experimental: 10 ml of an allyl 2-cyanoacrylate was added to a glass test tube and then sealed in a vacuum state. The sealed glass test tube was put in an oil bath of 150° C. to heat it for 5, 10, 20, 30, 40, 50, 60, and 70 minutes. The heated cyanoacrylate per each given period of time was cooled at room temperature and then the change in viscosity was observed.
An ethyl 2-cyanoacrylate was heated; then the heated cyanoacrylate per each given period of time was cooled at room temperature, and then the change in viscosity was observed, by using an identical method as in Example 1 described above, with the exception that ethyl 2-cyanoacrylate was used instead of allyl 2-cyanoacrylate.
The results of investigating the change in viscosity according to time of heating the 2-cyanoacrylate prepolymer in Example 1 and Comparative Example 1 are shown in FIG. 1. Furthermore, the values of viscosity according to time of heating the 2-cyanoacrylate prepolymer in Example 1 are shown in the following Table 1.

Structure (SMILES): C=C(C#N)C(=O)OCC [ethyl 2-cyanoacrylate]
- change in viscosity with greater heating time: no increase in the viscosity
